Measured values published in patent US11530219B2, “Ligands to cereblon (CRBN)” (DANA-FARBER CANCER INSTITUTE, INC., priority 2018, dated 2022).
Entries after “also recorded” stand apart in the source; their conditions may differ. Read-outs that look alike come from different tables or passages of the source.

Tests used:
[1] = molecular target: DDB1ΔB-CRBN (Homo sapiens (Human), UniProt Q96SW2); experiment: Atto565-Lenalidomide displacement assay (fluorescence polarization, CRBN binding); details: for IC50: 10 nM Atto565-Lenalidomide, 100 nM DDB1ΔB-CRBN, n=2; for Ki: calculated from IC50 with probe Kd of 40 nM, competitive model
DDB1ΔB-CRBN, sequence (Q96SW2 whole entry, stated change not applied): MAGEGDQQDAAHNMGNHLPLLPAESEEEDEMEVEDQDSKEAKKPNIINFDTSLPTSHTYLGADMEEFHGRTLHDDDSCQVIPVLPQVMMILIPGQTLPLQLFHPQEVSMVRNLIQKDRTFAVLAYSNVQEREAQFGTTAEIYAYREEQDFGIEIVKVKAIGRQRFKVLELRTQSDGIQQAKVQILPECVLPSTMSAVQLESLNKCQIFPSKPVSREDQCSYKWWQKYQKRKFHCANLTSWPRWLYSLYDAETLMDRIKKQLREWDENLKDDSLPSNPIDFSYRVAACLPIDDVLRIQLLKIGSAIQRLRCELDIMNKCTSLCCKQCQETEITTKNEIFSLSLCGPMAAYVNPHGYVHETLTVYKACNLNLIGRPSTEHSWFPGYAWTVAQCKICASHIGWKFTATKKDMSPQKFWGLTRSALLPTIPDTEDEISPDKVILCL
Method: Various inventive compounds were analyzed for cereblon binding. […] Compound titrations were incubated for 60 min at room temperature. The change in fluorescence polarization was monitored using a PHERAstar® FS microplate reader (BMG Labtech) for 1 h in 120s cycles.

[2] = molecular target: CRBN (Homo sapiens (Human), UniProt Q96SW2); experiment: Cellular CRBN dBET6 displacement assay (BRD4BD2-GFP/mCherry reporter cells); format: cell-based; details: 100 nM dBET6, 5 hours
CRBN, sequence (Q96SW2 whole entry): as the sequence (Q96SW2 whole entry, stated change not applied) above
Method: BRD4BD2 were subcloned into mammalian pcDNA5/FRT Vector (Ampicillin and Hygromycin B resistant) modified to contain MCS-eGFP-P2A-mCherry. […] Following a 2-3 passage cycle, FACS (FACSAria™ II, BD) was used to enrich for cells expressing eGFP and mCherry.
Signal from minimal 3000 events per well was acquired and the eGFP and mCherry florescence monitored. Data was analyzed using FlowJo® (FlowJo®, LCC). […] The eGFP protein abundance relative to mCherry was then quantified as a ten-fold amplified ratio for each individual cell using the formula: 10×eGFP/mCherry. The median of the ratio was then calculated per set, normalized to the median of the DMSO ratio.
This assay provided a readout of cellular CRBN binding impacted by the permeability of the molecule tested.

[3] = Flip-In 293 cells stably expressing BRD4BD2-GFP, read-out: Cellular CRBN-BRD4 dBET6 displacement EC50
[4] = Flip-In 293 cells stably expressing BRD4BD2-GFP
[5] = unit printed as 'M' in the text (Table 1 gives μM), read-out: Cellular CRBN engagement EC50

Q: With `O=C1CCC(N2Cc3c(NC(=O)CNc4ccnc(N5CCC[C@H]5CO)n4)cccc3C2=O)C(=O)N1` (stereo partly drawn) [Compound 4, N-(2-(2,6-dioxopiperidin-3-yl)-1-oxoisoindolin-4-yl)-2-((2-((S)-2-(hydroxymethyl)pyrrolidin-1-yl)pyrimidin-4-yl)amino)acetamide] as the compound, how does the IC50 [1] read?
A: The IC50 was 8.5 µM.

Q: And the Ki [1]?
A: Its Ki is 2.4 µM.

Q: Which results are given for `CC(=O)c1ccc(-c2nccc(NCC(=O)Nc3cccc4c3CN(C3CCC(=O)NC3=O)C4=O)n2)cc1` (stereo not drawn) [Compound 12, 2-((2-(4-acetylphenyl)pyrimidin-4-yl)amino)-N-(2-(2,6-dioxopiperidin-3-yl)-1-oxoisoindolin-4-yl)acetamide]?
A: IC50 [1]: 13.8 µM; Ki [1]: 3.9 µM

Q: With `COc1ccccc1Nc1nccc(NCC(=O)Nc2cccc3c2CN(C2CCC(=O)NC2=O)C3=O)n1` (stereo not drawn) [Compound 15, N-(2-(2,6-dioxopiperidin-3-yl)-1-oxoisoindolin-4-yl)-2-((2-((2-methoxyphenyl)amino)pyrimidin-4-yl)amino)acetamide] as the compound, how does the IC50 [1] read?
A: The IC50 was 15.2 µM.

Q: What about the Ki [1] of the same compound?
A: Its Ki is 4.3 µM.

Q: For `O=C1CCC(N2Cc3c(NC(=O)CNc4ccnc(Nc5ccc6c(c5)OCO6)n4)cccc3C2=O)C(=O)N1` (stereo not drawn) [Compound 5, 2-((2-(benzo[d][1,3]dioxol-5-ylamino)pyrimidin-4-yl)amino)-N-(2-(2,6-dioxopiperidin-3-yl)-1-oxoisoindolin-4-yl)acetamide], which IC50 [1] is on record?
A: The IC50 was 42.5 µM.

Q: What about the Ki [1] of the same compound?
A: Its Ki is 12.2 µM.

Q: How did the EC50 [2, 3] turn out when `CC(C)C(CO)Nc1nccc(Nc2cccc3c2CN(C2CCC(=O)NC2=O)C3=O)n1` [Compound 37, 3-(4-((2-(((R)-1-hydroxy-3-methylbutan-2-yl)amino)pyrimidin-4-yl)amino)-1-oxoisoindolin-2-yl)piperidine-2,6-dione] was run?
A: Its EC50 is 9.74 µM.

Q: How did the EC50 [2, 3] turn out when `O=C1CCC(N2Cc3c(Nc4ccnc(Nc5ccc6ccccc6c5)n4)cccc3C2=O)C(=O)N1` (stereo not drawn) [Compound 45, 3-(4-((2-(naphthalen-2-ylamino)pyrimidin-4-yl)amino)-1-oxoisoindolin-2-yl)piperidine-2,6-dione] was run?
A: The EC50 was 2.06 µM.

Q: Which EC50 [2, 3] does the source give for `CN(c1ccccc1)c1nccc(Nc2cccc3c2CN(C2CCC(=O)NC2=O)C3=O)n1` (stereo not drawn) [Compound 27, 3-(4-((2-(methyl(phenyl)amino)pyrimidin-4-yl)amino)-1-oxoisoindolin-2-yl)piperidine-2,6-dione] here?
A: Its EC50 is 1.25 µM.

Q: How did the “Cellular CRBN-BRD4 dBET6 displacement EC50” value [2, 4] turn out when `COc1cc(F)ccc1-c1nccc(NCC(=O)Nc2cccc3c2CN(C2CCC(=O)NC2=O)C3=O)n1` (stereo not drawn) [Compound 34, N-(2-(2,6-dioxopiperidin-3-yl)-1-oxoisoindolin-4-yl)-2-((2-(4-fluoro-2-methoxyphenyl)pyrimidin-4-yl)amino)acetamide] was run?
A: Its value is “inactive; also recorded: Not binding”.

Q: For `COc1ccc(OC)c(-c2nccc(NCC(=O)Nc3cccc4c3CN(C3CCC(=O)NC3=O)C4=O)n2)c1` (stereo not drawn) [Compound 10, 2-((2-(2,5-dimethoxyphenyl)pyrimidin-4-yl)amino)-N-(2-(2,6-dioxopiperidin-3-yl)-1-oxoisoindolin-4-yl)acetamide], which IC50 [1] is on record?
A: Its IC50 is 18.9 µM.

Q: What about the Ki [1] of the same compound?
A: Its Ki is 5.4 µM.

Q: How did the EC50 [2, 3] turn out when `O=C1CCC(N2Cc3c(Nc4nc(-c5ccc(-c6ccccc6)cc5)nc5[nH]cnc45)cccc3C2=O)C(=O)N1` (stereo not drawn) [Compound 48, 3-(4-((2-([1,1′-biphenyl]-4-yl)-9H-purin-6-yl)amino)-1-oxoisoindolin-2-yl)piperidine-2,6-dione] was run?
A: Its EC50 is 12.4 µM.

Q: For `COc1ccc(Nc2nccc(NCC(=O)Nc3cccc4c3CN(C3CCC(=O)NC3=O)C4=O)n2)cc1` (stereo not drawn) [Compound 7, N-(2-(2,6-dioxopiperidin-3-yl)-1-oxoisoindolin-4-yl)-2-((2-((4-methoxyphenyl)amino)pyrimidin-4-yl)amino)acetamide], which IC50 [1] is on record?
A: The IC50 was 38.9 µM.

Q: And the Ki [1]?
A: The Ki was 11.1 µM.

Q: `CC(C)n1cnc2c(Nc3cccc4c3CN(C3CCC(=O)NC3=O)C4=O)nc(Nc3ccc4c(c3)CCC4)nc21` (stereo not drawn) [Compound 53, 3-(4-((2-((2,3-dihydro-1H-inden-5-yl)amino)-9-isopropyl-9H-purin-6-yl)amino)-1-oxoisoindolin-2-yl)piperidine-2,6-dione] was tested. Which EC50 [2, 3] did it give?
A: Its EC50 is 0.665 µM.

Q: Which EC50 [2, 3] does the source give for `O=C1CCC(N2Cc3c(Nc4ccnc(Nc5ccc6c(c5)CCC6)n4)cccc3C2=O)C(=O)N1` (stereo not drawn) [Compound 24, 3-(4-((2-((2,3-dihydro-1H-inden-5-yl)amino)pyrimidin-4-yl)amino)-1-oxoisoindolin-2-yl)piperidine-2,6-dione] here?
A: The EC50 was 1.35 µM.

Q: Which results are given for `O=C1CCC(N2Cc3c(NC(=O)CNc4ccnc(N5CCC[C@@H]5CO)n4)cccc3C2=O)C(=O)N1` (stereo partly drawn) [Compound 14, N-(2-(2,6-dioxopiperidin-3-yl)-1-oxoisoindolin-4-yl)-2-((2-((R)-2-(hydroxymethyl)pyrrolidin-1-yl)pyrimidin-4-yl)amino)acetamide]?
A: IC50 [1]: 1.6 µM; Ki [1]: 0.44 µM

Q: `COc1cccc(-c2nccc(NCC(=O)Nc3cccc4c3CN(C3CCC(=O)NC3=O)C4=O)n2)c1` (stereo not drawn) [Compound 9, N-(2-(2,6-dioxopiperidin-3-yl)-1-oxoisoindolin-4-yl)-2-((2-(3-methoxyphenyl)pyrimidin-4-yl)amino)acetamide] was tested. Which IC50 [1] did it give?
A: The IC50 was 22.1 µM.

Q: What about the Ki [1] of the same compound?
A: Its Ki is 6.3 µM.

Q: `O=C1CCC(N2Cc3c(NC(=O)CNc4ccnc(Nc5ccccc5F)n4)cccc3C2=O)C(=O)N1` (stereo not drawn) [Compound 1, N-(2-(2,6-dioxopiperidin-3-yl)-1-oxoisoindolin-4-yl)-2-((2-((2-fluorophenyl)amino)pyrimidin-4-yl)amino)acetamide] was tested. Which IC50 [1] did it give?
A: Its IC50 is 29.7 µM.

Q: And the Ki [1]?
A: The Ki was 8.5 µM.

Q: Which IC50 [1] does the source give for `CN(c1ccccc1)c1nccc(NCC(=O)Nc2cccc3c2CN(C2CCC(=O)NC2=O)C3=O)n1` (stereo not drawn) [Compound 17, N-(2-(2,6-dioxopiperidin-3-yl)-1-oxoisoindolin-4-yl)-2-((2-(methyl(phenyl)amino)pyrimidin-4-yl)amino)acetamide] here?
A: The IC50 was 3.44 µM.

Q: And the Ki [1]?
A: The Ki was 0.97 µM.

Q: For `COc1ccc(-c2nccc(Nc3cccc4c3CN(C3CCC(=O)NC3=O)C4=O)n2)c(OC)c1` (stereo not drawn) [Compound 35, 3-(4-((2-(2,4-dimethoxyphenyl)pyrimidin-4-yl)amino)-1-oxoisoindolin-2-yl)piperidine-2,6-dione], which EC50 [2, 3] is on record?
A: The EC50 was 1.86 µM.

Q: With `O=C1CCC(N2Cc3c(Nc4ccnc(N5CCN(c6cccc(C(F)(F)F)c6)CC5)n4)cccc3C2=O)C(=O)N1` (stereo not drawn) [Compound 23, 3-(1-oxo-4-((2-(4-(3-(trifluoromethyl)phenyl)piperazin-1-yl)pyrimidin-4-yl)amino)isoindolin-2-yl)piperidine-2,6-dione] as the compound, how does the EC50 [2, 5] read?
A: Its EC50 is 0.66 µM.

Q: For `COc1cc(F)ccc1-c1nc(Nc2cccc3c2CN(C2CCC(=O)NC2=O)C3=O)c2nc[nH]c2n1` (stereo not drawn) [Compound 49, 3-(4-((2-(4-fluoro-2-methoxyphenyl)-9H-purin-6-yl)amino)-1-oxoisoindolin-2-yl)piperidine-2,6-dione], which EC50 [2, 3] is on record?
A: Its EC50 is 12.4 µM.

Q: How did the “Cellular CRBN-BRD4 dBET6 displacement EC50” value [2, 4] turn out when `NS(=O)(=O)c1ccc(Nc2nccc(Nc3cccc4c3CN(C3CCC(=O)NC3=O)C4=O)n2)cc1` (stereo not drawn) [Compound 40, 4-((4-((2-(2,6-dioxopiperidin-3-yl)-1-oxoisoindolin-4-yl)amino)pyrimidin-2-yl)amino)benzenesulfonamide] was run?
A: The value was “inactive; also recorded: Not binding”.

Q: Which EC50 [2, 3] does the source give for `COc1ccccc1Nc1nccc(Nc2cccc3c2CN(C2CCC(=O)NC2=O)C3=O)n1` (stereo not drawn) [Compound 38, 3-(4-((2-((2-methoxyphenyl)amino)pyrimidin-4-yl)amino)-1-oxoisoindolin-2-yl)piperidine-2,6-dione] here?
A: Its EC50 is 2.6 µM.

Q: `O=C1CCC(N2Cc3c(Nc4ccnc(Nc5ccccc5F)n4)cccc3C2=O)C(=O)N1` (stereo not drawn) [Compound 21, 3-(4-((2-((2-fluorophenyl)amino)pyrimidin-4-yl)amino)-1-oxoisoindolin-2-yl)piperidine-2,6-dione] was tested. Which EC50 [2, 3] did it give?
A: The EC50 was 2.31 µM.

Q: Which EC50 [2, 3] does the source give for `COc1ccccc1-c1nc(Nc2cccc3c2CN(C2CCC(=O)NC2=O)C3=O)c2nc[nH]c2n1` (stereo not drawn) [Compound 47, 3-(4-((2-(2-methoxyphenyl)-9H-purin-6-yl)amino)-1-oxoisoindolin-2-yl)piperidine-2,6-dione] here?
A: Its EC50 is 27.1 µM.

Q: How did the EC50 [2, 3] turn out when `Cc1cc(C)c(Nc2nccc(Nc3cccc4c3CN(C3CCC(=O)NC3=O)C4=O)n2)c(C)c1` (stereo not drawn) [Compound 28, 3-(4-((2-(mesitylamino)pyrimidin-4-yl)amino)-1-oxoisoindolin-2-yl)piperidine-2,6-dione] was run?
A: Its EC50 is 3.25 µM.

Q: `COc1cc(OC)cc(-c2nc(Nc3cccc4c3CN(C3CCC(=O)NC3=O)C4=O)c3nc[nH]c3n2)c1` (stereo not drawn) [Compound 51, 3-(4-((2-(3,5-dimethoxyphenyl)-9H-purin-6-yl)amino)-1-oxoisoindolin-2-yl)piperidine-2,6-dione] was tested. Which EC50 [2, 3] did it give?
A: Its EC50 is 6.83 µM.

Q: With `O=C1CCC(N2Cc3c(Nc4nc(-c5ccc(F)cc5)nc5[nH]cnc45)cccc3C2=O)C(=O)N1` (stereo not drawn) [Compound 50, 3-(4-((2-(4-fluorophenyl)-9H-purin-6-yl)amino)-1-oxoisoindolin-2-yl)piperidine-2,6-dione] as the compound, how does the EC50 [2, 3] read?
A: The EC50 was 8.29 µM.

Q: How did the EC50 [2, 5] turn out when `O=C1CCC(N2Cc3c(Nc4ccnc(Nc5ccc6c(c5)CCCC6)n4)cccc3C2=O)C(=O)N1` (stereo not drawn) [Compound 52, 3-(1-oxo-4-((2-((5,6,7,8-tetrahydronaphthalen-2-yl)amino)pyrimidin-4-yl)amino)isoindolin-2-yl)piperidine-2,6-dione] was run?
A: Its EC50 is 0.46 µM.

Q: `COc1ccc(Nc2nccc(Nc3cccc4c3CN(C3CCC(=O)NC3=O)C4=O)n2)cc1` (stereo not drawn) [Compound 18, 3-(4-((2-((4-methoxyphenyl)amino)pyrimidin-4-yl)amino)-1-oxoisoindolin-2-yl)piperidine-2,6-dione] was tested. Which EC50 [2, 3] did it give?
A: The EC50 was 2.69 µM.
